Data from ChEMBL document CHEMBL5226299, “Targeting Lysosomal Degradation Pathways: New Strategies and Techniques for Drug Discovery” (J Med Chem, 2021).

Biological target: Methionine aminopeptidase 2 (Homo sapiens) (UniProt P50579)
Experiment: Induction of MetAP-2 degradation in human HeLa cells at 10 uM relative to control
Format: cell-based

Methionine aminopeptidase 2 (Homo sapiens), sequence (P50579 2-478 limits assumed): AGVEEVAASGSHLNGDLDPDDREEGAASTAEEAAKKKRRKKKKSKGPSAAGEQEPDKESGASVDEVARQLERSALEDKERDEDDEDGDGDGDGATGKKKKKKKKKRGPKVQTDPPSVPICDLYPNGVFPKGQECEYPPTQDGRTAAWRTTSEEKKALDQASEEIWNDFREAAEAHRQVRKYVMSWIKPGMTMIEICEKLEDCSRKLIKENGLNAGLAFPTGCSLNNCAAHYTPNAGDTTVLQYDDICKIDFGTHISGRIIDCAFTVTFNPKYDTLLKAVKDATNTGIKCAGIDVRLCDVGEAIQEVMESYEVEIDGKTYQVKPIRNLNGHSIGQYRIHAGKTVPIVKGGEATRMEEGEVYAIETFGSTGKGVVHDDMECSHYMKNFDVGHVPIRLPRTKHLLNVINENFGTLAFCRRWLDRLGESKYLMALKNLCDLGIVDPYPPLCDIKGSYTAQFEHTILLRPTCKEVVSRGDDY

Structure (SMILES): CO[C@@H]1[C@H](OC(=O)NCCCOCCOCCOCCCNC(=O)[C@H](CSc2nc3c(=O)[nH]c(N)nc3n2Cc2ccc(F)cc2)NC(C)=O)CC[C@]2(CO2)[C@H]1[C@@]1(C)O[C@@H]1CC=C(C)C
- Activity: 80%
